Results reported in US12129313B2, “Anti-inflammatory use of peptide” (ENLITISA (SHANGHAI) PHARMACEUTICAL CO., LTD, priority 2017, dated 2024).
Where no end group is shown, it is not given here. [ ]: non-standard residue; d: D form. Dopa = N[C@@H](Cc1ccc(O)c(O)c1)C(=O)O; Hyp = O=C(O)[C@@H]1C[C@@H](O)CN1

Columns and labels:
C57BL/6 mice [1] = test: Air pouch model (carrageenan): exudate volume, pouch wall weight, exudate cell count; type: in vivo; set-up: Neutrophil (total cell count and classification) / Monocyte (total cell count and classification): unit not given here; settings: for Pouch Wall Weight / Exudate volume: mean ± SD, 24 hours after carrageenan; for Exudate volume: injected into air pouch, per mouse: Positive 200 μg, M1-B/M1-A/Test 1.5 mg, M2-B/M2-A 4.5 mg, timing 1 hour (Positive, -B, Test) or 6 hours (-A), Table 1
Procedure: Healthy adult male C57BL/6 mice weighing between 20 and 30 g were supplied by Nanjing Biomedical Research Institute (NBRI) of Nanjing University, China. Prior to any experiments being conducted, mice were housed under standardized conditions (at a constant temperature or 22±2° C., with alternating 12 hour periods of light and darkness), and were fed on a standard mouse diet with water, for about a week.
General anesthesia was induced using intraperitoneal 3% chloral hydrate (Sinopharm Chemical Reagent Co., Ltd., Shanghai, China); 1 mL/10 g of body weight). The hair of the entire dorsum was shaved and depilated 1 day before sterile air injection.
(§1) Air pouches were produced by subcutaneous injection of sterile air (5 mL) into the intrascapular area of the mice. After three days, another injection of air (3 mL) was performed to maintain the pouches. In order to induce acute inflammation, three days after this final injection, animals received an injection of sterile carrageenan solution (CP Kelco, Taixing, Jiangsu Province, China; 1%, 0.5 mL; produced by adding 0.1 g of carrageenan powder into a beaker containing 10 mL of 0.9% saline solution and stirring). Mice were pre-treated with test samples or vehicle 1 hour before and 23 hours after the carrageenan injection into the subcutaneous air pouch. Animals were sacrificed 24 hours after the carrageenan injection.
The cavity was washed with 4 mL of sterile phosphate buffer solution (pH 7.4; prepared by dissolving 4 g of NaCl, 0.1 g of KCl, 1.749 g of Na2HPO4.12H2O and 0.1 g of KH2PO4 in ultrapure water, adjusting the pH to 7.4 with HCl and diluting with water to a total volume of 500 mL).
(§2) Exudates were collected and volumes were quantified. The total number of cells was determined with a haematocytometer (ADVIA 2120 Hematology System, Siemens Healthineers). The exudates were centrifuged at 3000 rpm for 10 minutes at 4° C., and the supernatants were collected and stored at −20° C. for ELISA analysis using standard ELISA test kits (Biolegend™ from Dakewe Biotech Co., Beijing, China or Abcam™, Abcam (Shanghai) Trading Co. Ltd, China) and an ELISA reader (SH-1000 Hitachi, Japan) for tissue necrosis factor alpha (TNF-α), interleukin 1 beta (IL-1β), interleukin 6 (IL-6), interleukin 10 (IL-10), prostaglandin E2 (PGE2), interferon gamma (IFN-γ) and 5-hydroxytryptamine (5-HT; serotonin).
After conducting some preliminary experiments to validate the model, an experiment was conducted in which mice were treated by administering test samples or vehicle in accordance with Table 1 below.
In Table 1, the M1-B, M2-B, M1-A and M2-A samples are MAP (Mefp-1) solutions of specified concentrations administered at different times relative to the carrageenan injection, as specified in the table. The solutions were prepared as follows. Blue mussels were harvested in the coastal area of Shandong Province, China. Mussel feet were collected, cut into small pieces and homogenized in an extraction buffer comprising 5% acetic acid in 4 mol/L of aqueous urea. The crude extracts were collected after centrifuging and then purified by liquid chromatography. The purified protein (semi-finished product; concentration 8 mg/mL; purity as measured by HPLC 91.72%; pH 4.2) was stored at 0° C. The solutions that were employed below were prepared by adding saline solution to this semi-finished product to obtain the concentrations described in Table 1.
Also in Table 1, “Test” is MAP Peptide, which was obtained from Innovagen AB, Sweden. The peptide was synthesized according to the relevant Mefp-1 amino acid sequence. The peptide powder was stored at −20° C. and dissolved in saline water at a concentration of 3.0 mg/mL, pH 5.5.
Dexamethasone (MedChemExpress, Shanghai, China) was obtained in powder form and dissolved in ultrapure water to obtain a solution with a concentration as described in Table 1.
All the substances listed in Table 1 were administrated topically by directly injecting into the air pouches.

C57BL/6 mice [2] = test: Air pouch model: histology scoring of pouch wall (HE stained slices); type: in vivo; set-up: key to Inflammation score / Edema Score / Motility score: 1 = mild, 2 = moderate, 3 = severe; settings: for Motility score: density of neutrophils, 1 to 3 points; for Motility score / Edema Score / Inflammation score: doses and timing per Table 1; for chronic inflammatory cell infiltration of the pouch wall / edema of the pouch wall / neutrophil infiltration of the pouch wall: histological description in words; for Edema Score / Inflammation score: pouch wall histology; for Edema Score: 1 mild to 3 most severe; for Inflammation score: 1 mild to 3 severe; for Sum: sum of inflammation, edema and motility scores
Procedure: as §1
Skin biopsies were taken from the air pouches. A part of the biopsy was fixed in formalin (produced by adding ultra pure water to 50 mL of a 40% formaldehyde solution (Nanchang Rain Dew Experimental Equipment Co., Ltd., Nanchang, […] Provence, China) up to a total volume of 500 mL) and analyzed by histological embedding in paraffin wax, sectioning and staining.
The histological specimens were analysed and an inflammation score, a motility score, an edema score and […] were estimated as follows.
The HE stained slices were observed under an optical microscope and were scored (1, 2 or 3 points) according to the perceived inflammation level (in cases showing only a small amount of inflammatory cells scattered in the area—1 point (mild); in cases where many inflammatory cells were observed—2 points (moderate); and, in cases with diffuse infiltration—3 points (severe)). A similar scoring system was employed for edema levels (3 points for most severe and 1 point for mild) after overall observation. Motility scores represented the density of neutrophils, which employed the same methodology as that employed for inflammatory cells.

TNF-α = test: Air pouch model: ELISA of exudate for TNF-α; type: in vivo, mice; settings: ±SD, doses and timing per Table 1
Procedure: as §1, with “Animals were sacrificed 24 hours after the carrageenan injection.” left out
as §2, with “serotonin). […]” for “serotonin).”

IL-6 = test: Air pouch model: ELISA of exudate for IL-6; type: in vivo, mice; settings: ±SD, doses and timing per Table 1
Procedure: as §1
as §2, with “The total number of cells was determined with a haematocytometer (ADVIA 2120 Hematology System, Siemens Healthineers).” left out

IFN-γ = test: Air pouch model: ELISA of exudate for IFN-γ; type: in vivo, mice; settings: ±SD, doses and timing per Table 1
Procedure: as §1, with “Animals were sacrificed 24 hours after the carrageenan injection.” left out
as §2, with “serotonin). […]” for “serotonin).”

C57BL/6 mice [3] = test: Air Pouch Model II: histology scoring; type: in vivo
Procedure: (§3) Essentially the same procedure as that described in Example 1 above was followed, to treat mice by administering test samples or vehicle in accordance with Table 6 below.
(§4) In this example, MAP Peptide powder was dissolved in saline water at a concentration of 0.6 mg/mL at pH 5.5. Then 0.5 mL of the solution was injected into each air pouch in the group.

TNF-α, IL-6, and IL-1β = test: Air Pouch Model II: ELISA of exudate; type: in vivo, mice; settings: 300 μg/mouse into air pouch; FIGS. 2A-2C
Procedure: as §3, §4
In this example, ELISA analysis was carried out for TNF-α, IL-6, and IL-1β, which are shown graphically in FIGS. 2A-2C, respectively.

C57BL/6 mice [4] = test: Acute wound model: wound contraction ratio; type: in vivo
Procedure: 6-8 weeks old male C57BL/6 mice were supplied by Changzhou Ovens Experimental Animal Co. Ltd (Changzhou, Jiangsu Province, China). Prior to any experiments being conducted, mice were housed under standardized conditions (at a constant temperature of 22±2° C., with alternating 12 hour periods of light and darkness), and were fed on a standard mouse diet with water, for about a week.
General anesthesia was induced using intraperitoneal 3% chloral hydrate (1 mL/10 g of body weight). The hair on the back was shaved by a baby hair shaver and depilated with cream. The skin area was wiped and sterilized with 75% alcohol twice.
An EMS skin biopsy punch (Electron Microscopy Sciences, P.O. Box 550, 1560 Industry Road, Hatfield, PA, USA) with 8 mm diameter was used to make a round wounds on each side of the midline of the back. The full thickness of skin was removed and the depth of the wound reached the fascia. Wounds were left open without a suture.
Different drugs were administrated topically at 50 μL/wound, once daily from Day 0 to Day 12, as show in Table 8 below. […] The model group was given same amount of normal saline. There were 12 mice in each group.
For this experiment, MAP Peptide was obtained from GL Biochem (Shanghai) Ltd. The peptide powder was stored at −20° C. and dissolved in saline at a concentration of 33 μg/m L.
20 μL of respective solutions were applied onto each wound surface in the relevant groups.
Wounds were dressed with gauze and transparent dresser after drug administration. Photographs were taken for each wound every other day from Day 0. Photos were scanned into a computer, and wound areas calculated using ImageJ image analysis software (National Institutes of Health, […]).
Photographs were taken for each wound every other day from Day 0. Wound healing was calculated by the wound contraction ratio (WCR) WCR=(A0−At)/A0×100% where A0 and At refer to the initial area at Day 0 and the wound area at the date of measurement (time t), respectively.

[5] = test system: polymorphous light eruption; test: MAP Peptide liquid spray in subjects with polymorphous light eruption; type: in vivo; settings: 1.5 mg/mL spray in WFI
Procedure: MAP Peptide was dissolved in water for injection (WFI; prepared from TC-RO-0.25T/h-2 water treatment system, Yangzhou […] Treatment Devices & Engineering Co., Ltd., Yangzhou, China). The concentration of the solution was 1.5 mg/mL. The solution was loaded into a spray device. Enrolled subjects in the study were diagnosed with polymorphous light eruption (an inflammatory condition characterized by a rash caused by sun exposure in people who have developed sensitivity to sunlight). Prior to treatment, the patients presented symptoms including skin redness, papules, itching and swelling. Subjects were required to use the liquid spray in the morning and the evening after facial cleansing.

[6] = air pouch exudate, doses and timing per Table 1
[7] = 300 μg/mouse into air pouch, 1 hour before carrageenan
[8] = ±SD, topical once daily, MAP 5 μg/wound, MAP Peptide 6.57 μg/wound

AKPSY[Hyp][Hyp]T[Dopa]K [MAP Peptide] was tested, and the “Leukocyte (total cell count and classification)” value (C57BL/6 mice [1]; [6]) was 4.74e+06 mL⁻¹, the “Monocyte (total cell count and classification)” value (C57BL/6 mice [1]; [6]) was 81.54 ×10^6 and the “Neutrophil (total cell count and classification)” value (C57BL/6 mice [1]; [6]) was 296.32 ×10^6. For the same molecule, the “Pouch Wall Weight” value (C57BL/6 mice [1]; doses and timing per Table 1) was 0.60 ± 0.17 g, the Exudate volume (C57BL/6 mice [1]) was 3.43 ± 0.06 mL and the Motility score (C57BL/6 mice [2]) was 1.00. For the same molecule, the “chronic inflammatory cell infiltration of the pouch wall” value (C57BL/6 mice [2]) was “mild to moderate chronic inflammatory cell infiltration”, the “edema of the pouch wall” value (C57BL/6 mice [2]) was “interstitial edema” and the “neutrophil infiltration of the pouch wall” value (C57BL/6 mice [2]) was “a small amount of neutrophil infiltration”. The “Edema Score” value (C57BL/6 mice [2]) was 1.00, the Inflammation score (C57BL/6 mice [2]) was 1.67 and the Sum (C57BL/6 mice [2]) was 3.67. The TNF-α (TNF-α) was 58.49 ± 28.72, the IL-6 (IL-6) was 132.63 ± 137.34 and the IFN-γ (IFN-γ) was 377.31 ± 198.68. The “Inflammation score” value (C57BL/6 mice [3]; 300 μg/mouse (0.6 mg/mL, 0.5 mL) into air pouch, 1 hour before carrageenan) was 1.6, the “Edema Score” value (C57BL/6 mice [3]; [7]) was 1.8 and the Fibroplastic proliferation score (C57BL/6 mice [3]; [7]) was 0.2. For the same molecule, the Sum (C57BL/6 mice [3]; 300 μg/mouse, printed sums equal inflammation + edema scores only) was 3.4, the “anti-inflammatory effects (ELISA for TNF-α, IL-6, IL-1β)” value (TNF-α, IL-6, and IL-1β) was “very strong anti-inflammatory effects” and the “improvement rate, (WCR MAP Peptide Group−WCR MAP Group)/WCR MAP Group×100%” value (C57BL/6 mice [4]; Day 6, versus MAP group) was 52.96%. For the same molecule, the “effect on wound healing compared with MAP” value (C57BL/6 mice [4]; acute wound model, Table 9) was “stronger effect on wound healing than MAP”, the “wound contraction ratio (WCR), Day 2” value (C57BL/6 mice [4]; [8]) was 6.99 ± 2.02% and the “wound contraction ratio (WCR), Day 4” value (C57BL/6 mice [4]; [8]) was 18.65 ± 1.87%. The “wound contraction ratio (WCR), Day 6” value (C57BL/6 mice [4]; [8]) was 42.91 ± 0.57%, the “wound contraction ratio (WCR), Day 8” value (C57BL/6 mice [4]; [8]) was 48.73 ± 1.65% and the “wound contraction ratio (WCR), Day 0” value (C57BL/6 mice [4]; ±SD, topical once daily, MAP 5 μg/wound, MAP Peptide 6.57 μg/wound, 8 mm full thickness wound) was 0.00 ± 0%. The “erythema alleviation efficiency compared to MAP spray of same concentration” value [5] was “much more rapid erythema alleviation efficiency”, the malaise [5] was “inhibited malaise” and the “subjects whose erythema completely disappeared in a few hours” value [5] was 50%. The “tested subjects with itch completely relieved within 1 minute” value [5] was 50%, the “time to alleviation of most of the observed erythema” value [5] was no more than 1 min and the “time to relief of itching” value ([5]; morning and evening) was no more than 1 min.

With `C[C@@H]1C[C@H]2[C@@H]3CCC4=CC(=O)C=C[C@]4(C)[C@@]3(F)[C@@H](O)C[C@]2(C)[C@@]1(O)C(=O)CO` [Positive, Dexamethasone, reference compound] the “Leukocyte (total cell count and classification)” value (C57BL/6 mice [1]; [6]) was 3.49e+06 mL⁻¹, the “Pouch Wall Weight” value (C57BL/6 mice [1]; doses and timing per Table 1) was 0.63 ± 0.09 g and the Exudate volume (C57BL/6 mice [1]) was 3.3 ± 0.15 mL. For the same molecule, the Motility score (C57BL/6 mice [2]) was 0.67, the “chronic inflammatory cell infiltration of the pouch wall” value (C57BL/6 mice [2]) was “moderate chronic inflammatory cell infiltration” and the “edema of the pouch wall” value (C57BL/6 mice [2]) was “moderate interstitial edema”. For the same molecule, the “neutrophil infiltration of the pouch wall” value (C57BL/6 mice [2]) was “a small amount of neutrophil infiltration”, the “Edema Score” value (C57BL/6 mice [2]) was 1.67 and the Inflammation score (C57BL/6 mice [2]) was 1.83. It also gave a Sum (C57BL/6 mice [2]) of 4.17, a TNF-α (TNF-α) of 65.08 ± 7.70 and an IL-6 (IL-6) of 428.05 ± 267.27. It also gave an IFN-γ (IFN-γ) of 388.83 ± 130.02.
